Measurements reported in US20240181007A1, “COMPOSITIONS AND METHODS FOR TREATING PULMONARY HYPERTENSION” (Acceleron Pharma Inc., priority 2021, published 2024).

System: ZSF1-SU rats
Experiment: HFpEF induced PH rat model, ZSF1 rats challenged with semaxanib (Example 10)
Type: in vivo
Conditions: relative to ZSF1-SU/PBS
Experimental: The effects of an ActRIIA-mFc fusion polypeptide (SEQ ID NO: 56) was examined in a rat model of left ventricular diastolic dysfunction (also referred to as HEpEF) group 2 (subgroup 2.2) pulmonary hypertension (PH). In this model, ZSF1-Lepr^faLepr^cp/Crl rats were challenged with semaxanib to induce HFpEF-PH(l).
Forty ZSF1 Lepr^faLepr^cp/Crl male […] (8 wks old) and five lean rats were subcutaneously administered with a single dose of semaxanib (100 mg/kg) at day 0, and five lean rats were included as normal control. Six weeks after semaxanib (SU5416) treatment, Thirty-six ZSF1 Lepr^faLepr^cp/Crl rats were randomized into four groups: i) nine rats were injected subcutaneously with vehicle control (phosphate buffered saline (PBS)), twice weekly for 8 weeks starting from day 42 after semaxanib treatment, “ZSF1-SU/PBS”; a ii) ten rats were injected subcutaneously with ActRIIA-mFc at a dose of 1 mg/kg twice weekly for 8 weeks starting from day 42 after semaxanib treatment, “ZSF1-SU/ActRIIA-mFc 1 mpk”: a iii) nine rats were injected subcutaneously with ActRIIA-mFc at a dose of 3 mg/kg twice weekly for 8 weeks starting from day 42 after semaxanib treatment, “ZSF1-SU/ActRIIA-mFc 3 mpk”; and a iv) eight rats were injected subcutaneously with ActRIIA-mFc at a dose of 10 mg/kg twice weekly for 8 weeks starting from day 42 after semaxanib treatment, “ZSF1-SU/ActRIIA-mFc 10 mpk”. At the end of the study, echocardiography and pressure-volume catheter were performed to measure left and right ventricular remodeling and functional changes before animals were euthanized for heart and lung collection. Hearts and lungs of each rat were weighed, fixed in 10% formalin, embedded in paraffin, and sectioned for Masson's trichrome stain to assess fibrosis. Serum and urine samples were collected at the end of the study.
Rats were fasted overnight to measure fasting blood glucose levels at week 14 (before treatments started), week 18 (4 weeks after treatments), and week 22, and oral glucose tolerance test was performed at week 22. Blood glucose levels were measured with a glucometer after bleeding tail vein with a 27G needle. To prepare oral glucose tolerance test, 40% glucose stock solution run through a filter to sterilize it. After fasting overnight, rat body weight was measured. Blood glucose level was detected. Then 40% glucose solution was administered via oral gavage according to body weight (2 g/kg). Blood glucose levels were measured at 30, 60, 90, 120 minutes.
Prior to euthanization, in vivo cardiac function was assessed by transthoracic echocardiography (Acuson P300, 18 MHz linear transducer; Siemens) in lightly anesthetized rats as described (2). From left ventricle short axis view, M-mode echocardiogram was acquired to measure interventricular septal thickness at end diastole (IVSd), left ventricular posterior wall thickness at end diastole (LVPWd), left ventricular end diastolic diameter (LVEDD), and left ventricular end systolic diameter (LVESD). Left ventricular mass (LVM) was assessed by the equation: 1.05 [(LVEDD+LVPTD+IVSd)^3-LVEDD^3]. Early diastolic filling peak velocity (E), early diastolic mitral annular velocity (E′), and isovolumetric relaxation time (IVRT) were measured from the medial or septal wall at the mitral valve level from tissue Doppler image. LV diastolic function was assessed by measuring the E/E′ ratio and IVRT. Pulmonary arterial acceleration time (PAAT), a parameter of right ventricular function, was also measured.
Fourteen weeks after semaxanib treatment, rats were anesthetized with ketamine (100 mg/kg) and xylazine (5 mg/kg) at the end of the experiment to evaluate cardiac and pulmonary hemodynamics. The respiration was supported by a small animal ventilator. Thoracotomy was made through 4-5 intercostal space, and the heart was exposed. A pressure-volume catheter (2.0-Fr, SPR-869, Millar Instruments, Houston, TX, USA) was be inserted into the left ventricle and right ventricle from the apex. […]

[1] = 1 mpk, 3 mpk and 10 mpk, FIGS. 41-43

With “ActRIIA-mFc: ActRIIA-mFc fusion polypeptide (SEQ ID NO: 56); extracellular domain fused to murine IgG2a Fc domain with a linker” the fasting blood glucose [1] was “significantly reduced fasting blood glucose”, the “glucose level in urine” value [1] was “decreased glucose level in urine” and the “glucose tolerance (oral glucose tolerance test)” value [1] was “improved glucose tolerance”. The “E/E′ ratio” value (3 mpk and 10 mpk s.c. twice weekly for 8 weeks from day 42 after semaxanib, FIG. 29) was “reduced E/E′ ratio”, the IVRT (3 mpk and 10 mpk s.c. twice weekly for 8 weeks from day 42 after semaxanib, FIG. 30) was “decreased IVRT” and the RVFWT (3 mpk and 10 mpk s.c. twice weekly for 8 weeks from day 42 after semaxanib, FIG. 34) was “significantly reduced elevated RVFWT”. The PAAT (3 mpk and 10 mpk s.c. twice weekly for 8 weeks from day 42 after semaxanib, FIG. 35) was “reduced PAAT”, the RVSP (3 mpk and 10 mpk s.c. twice weekly for 8 weeks from day 42 after semaxanib, FIG. 36) was “reduced elevated RVSP” and the “left heart remodeling (HW/TL, IVSd, LVM)” value (3 mpk and 10 mpk s.c. twice weekly for 8 weeks from day 42 after semaxanib, FIGS. 31-33) was “significantly reduced left heart remodeling”. For the same substance, the “fibrosis in LV” value (s.c. twice weekly for 8 weeks, dose not given, FIG. 37) was “significantly reduced the increased fibrosis”, the “fibrosis in RV” value (s.c. twice weekly for 8 weeks, dose not given, FIG. 38) was “significantly reduced the increased fibrosis” and the fibrosis in lung (s.c. twice weekly for 8 weeks, dose not given, FIG. 39) was “significantly reduced the increased fibrosis”.
